Measurements reported in US11001591B2, “TRAF 6 inhibitors” (HELMHOLTZ ZENTRUM MUENCHEN—DEUTSCHES FORSCHUNGSZENTRUM FÜR …, priority 2016, dated 2021).

What was measured:
ITCH = target: T1, ITCH (Homo sapiens, UniProt Q96J02); assay: In vitro ubiquitination assay, ITCH; format: biochemical; conditions: HECT E3 ligase
T1 construct: purchased Boston Biochem one of K-102, K-260, K-200B, K-220, K-240, K-270
Procedure: For analysis of clAP1, MDM2, TRIM63, RNF4, ITCH and E6AP mediated poly-ubiquitination, the respective ubiquitin ligase kit from Boston Biochem (K-102, K-260, K-200B, K-220, K-240 and K-270) was used. Here, reaction buffer, E1, E2 and E3 enzyme (and p53 substrate in case of MDM2) were mixed and pre-incubated with compound or DMSO for 5 minutes at room temperature before adding Mg^2+-ATP and mono-ubiquitin for reaction start. Ubiquitination was visualized by Western Blot analyses.

[1] = tested on: human peripheral blood mononuclear cells (PBMCs); assay: Cytokine secretion of primary human PBMCs; format: cell-based
Procedure: (§1) For measurement of cytokine secretion, 2×10^5 Jurkat T-cells or primary CD4^+ T-cells or human PBMCs per sample were seeded, treated with compound for 6 hours and stimulated as indicated. 20 hours after stimulation, supernatants were harvested and analyzed with the IL-2, IL-1β and TNFα Ready-Set-Go! ELISA (2nd Generation) kits provided by Affymatrix eBioscience.
For isolation of peripheral blood mononuclear cells (PBMCs) from 50 mL human blood of three different donors, blood was mixed with 800 units of Heparin (Sigma-Aldrich) and centrifuged at 300×g for 10 minutes without brake. After removal of the plasma fraction, buffy coat was diluted in 2 volumes PBS and added on top of 15 ml Lymphoprep (STEMCELL technologies). After centrifugation at 160×g for 20 minutes at room temperature without brake, platelets were removed and the cell suspension was centrifuged again at 350 xg for 20 minutes without brake. Mononuclear cells from the intermediate layer were transferred to a new falcon and washed 3 times in PBS supplemented with 0.1% BSA and 2 mM EDTA. In the end, cells were resuspended in RPMI medium containing 10% FCS, 1% Penicillin/Streptomycin and 50 μM β-mercaptoethanol. Per sample, 2×10^5 cells were seeded and treated with compound for 6 hours. The cells were stimulated with either 1 μg/ml Lipopolysaccharide (LPS) or CD3/CD28 (1 μg hCD3 (IgG2A), 4 μg hCD28 (IgG1), 2 μg ant-IgG2A and 2 μg ant-IgG2A) or 20 ng/IL-1β. Supernatants for analysis of cytokine secretion were harvested 20 hours after stimulation.

NF-κB = assay: EMSA NF-κB activation in Jurkat T-cells; format: cell-based, human; conditions: PMA/Ionomycin
Procedure: For compound treatment, MEF cells were seeded in 6 well plates at 1.2×10^5 cells/well the day before treatment. Jurkat T-cells were seeded directly before treatment at 2×10^5 cells/sample. Six hours after compound or DMSO treatment cells were stimulated as indicated. Thereby, MEF cells were left untreated or stimulated with recombinant mouse IL-1β (1 ng/mL) or TNFα (10 ng/mL) for 20 minutes. Jurkat T-cells were stimulated with Phorbol-12-myristat-13-acetet (PMA) (400 ng/mL) and lonomycin (600 ng/mL) for 30 minutes. Eventually, cells were lysed in high-salt lysis buffer (20 mM HEPES pH 7.9; 350 mM NaCl; 1 mM MgCl2; 0.5 mM EDTA; 0.1 mM EGTA; 20% Glycerol; 1% NP-40; 10 mM NaF; 8 mM β-Glycerophosphate; 1 mM DTT; 300 μM Sodium-vanadate; complete protease inhibitor) and analyzed in EMSA assays using H2K (NF-κB) or Oct-1 (loading control) probes.

plasma protein = assay: Plasma protein binding; format: in vitro ADME
Procedure: All ADME (plasma stability, plasma protein binding, microsomal stability, Log D, Caco-2 assay, CYP450 inhibition and hERG predictor assay) as well as pharmacokinetic studies (Tmax, Cmax, AUC0-240 min, Mean Residence Time, Elimination half life, Elimination rate constant, Volume of Distribution and Clearance) of C25-140 (compound 3) were conducted by Bienta Enamine Biology Services of Bienta/Enamine Ltd.

[2] = tested on: MEF, HepG2 and Jurkat cells; assay: Cell viability, CellTiter-Glo 2.0; format: cell-based
Procedure: For cell viability experiments using the CellTiter-Glo® 2.0 system (Promega), MEF cells (1.2×10^3 cells/well), HepG2 cells (4×10^3 cells/well) and Jurkat T-cells (5×10^3 cells/well) were seeded in 384 well plates. After 18 hours, cells were treated with compounds using the Sciclone G3 automation system. After 6 or 24 hours incubation, the luciferase measurement was performed according to the manufacturer's manual.

[3] = tested on: primary naïve CD4+ T-cells; assay: IL-2 in primary murine CD4+ T-cells; format: cell-based, mouse; conditions: CD3/CD28 stimulation
Procedure: For MEF cells, 1.2×10^5 cells per sample were seeded, treated with compound for 6 hours and stimulated with either IL-1β or TNFα for 60 minutes. […] RNA was isolated according to the manufacturer's protocol of the Qiagen RNeasy Kit (MEF cells) or the STRATEC INVITRAP® SPIN UNIVERSAL RNA MINI KIT (Jurkat T-cells). The isolation of mRNA from […] white adipose tissue from DIO mice was performed using TRIzol® Reagent according to manufacturer's instruction. To clear the isolated RNA from genomic DNA, samples (up to 5 μg RNA) were treated with RQ1 RNase-Free DNaseI (Promega) as described in the technical manual. […] For quantification of cDNA in the samples, the LightCylcer480 (Roche) and the KAPA SYBR FAST qPCR Kit were used. For relative quantification, the ΔΔCp method first described by Pfaffl (Pfaffl, M. W., A new mathematical model for relative quantification in real-time RT-PCR. Nucleic Acids Res, 2001. 29(9): p. e45) was applied. […]
as §1, with “ELISA (2nd Generation) kits provided by Affymatrix eBioscience.” left out

T1 sequence (Q96J02 whole entry): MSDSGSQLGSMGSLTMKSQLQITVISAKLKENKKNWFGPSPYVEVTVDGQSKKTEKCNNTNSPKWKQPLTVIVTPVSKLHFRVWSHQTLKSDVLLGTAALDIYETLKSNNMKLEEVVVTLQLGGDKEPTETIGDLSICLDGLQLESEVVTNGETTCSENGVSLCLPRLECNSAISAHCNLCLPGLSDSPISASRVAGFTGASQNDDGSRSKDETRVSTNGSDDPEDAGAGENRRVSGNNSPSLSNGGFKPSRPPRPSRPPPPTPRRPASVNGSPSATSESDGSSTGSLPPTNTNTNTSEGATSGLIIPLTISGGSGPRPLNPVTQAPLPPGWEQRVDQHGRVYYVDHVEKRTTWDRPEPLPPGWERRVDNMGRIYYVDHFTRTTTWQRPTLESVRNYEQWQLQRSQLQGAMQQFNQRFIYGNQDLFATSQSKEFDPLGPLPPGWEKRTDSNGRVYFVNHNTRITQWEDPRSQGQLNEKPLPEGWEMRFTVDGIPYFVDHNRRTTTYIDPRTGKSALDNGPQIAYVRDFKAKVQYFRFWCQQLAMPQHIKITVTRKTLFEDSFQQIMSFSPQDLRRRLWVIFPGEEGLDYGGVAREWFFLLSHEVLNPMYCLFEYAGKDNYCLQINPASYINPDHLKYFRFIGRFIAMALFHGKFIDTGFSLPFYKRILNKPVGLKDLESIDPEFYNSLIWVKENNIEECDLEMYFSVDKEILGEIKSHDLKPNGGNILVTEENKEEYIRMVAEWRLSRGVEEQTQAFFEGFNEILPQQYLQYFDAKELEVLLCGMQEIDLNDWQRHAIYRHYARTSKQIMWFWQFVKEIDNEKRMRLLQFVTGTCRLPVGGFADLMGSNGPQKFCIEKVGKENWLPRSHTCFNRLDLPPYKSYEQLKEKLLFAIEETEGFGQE

Compound: Cc1nn(-c2ccc3nnc(C)n3n2)c(C)c1CCC(=O)N1CCC(Cc2ccccc2)CC1 [Compound 3, 1-(4-benzylpiperidin-1-yl)-3-(3,5-dimethyl-1-(3-methyl-[1,2,4]triazolo[4,3-b]pyridazin-6-yl)-1H-pyrazol-4-yl)propan-1-one]
- ITCH auto-ubiquitination (ITCH): not affected
- secretion of IL-2 and TNFα ([1]; human PBMCs stimulated with CD3/CD28): decreased levels
- secretion of IL-6 and TNFα ([1]; human PBMCs stimulated with IL-1β): attenuated
- secretion of IL-1β and TNFα ([1]; human PBMCs stimulated with LPS): reduced levels
- NF-κB activation (NF-κB): attenuated
- plasma protein binding (plasma protein): decent good plasma protein binding capacity
- cell viability at highest dose ([2]; 100 μM, 24 hours): toxicity is noticeable
- metabolic activity and cell viability ([2]; up to 50 μM, 24 hours incubation, MEF, HepG2, Jurkat): does not considerably affect
- IL-2 mRNA expression [3]: impaired
- IL-2 protein secretion [3]: impaired
